Several values for one entry are separate records, joined by “and”; a condition that tells them apart may be missing. Identical values can stand only once.
Tests used:
[1] = tested on: full thickness wound in flank skin of Wistar rat; experiment: Wound healing in the Wistar rat, no light; format: in vivo; conditions: for % Wound area remaining, no light, 2 days post treatment / % Wound area remaining, no light, 4 days post treatment / % Wound area remaining, no light, 6 days post treatment: 100 mg topical, not illuminated
Description: On day 0, animals were anaesthetised and a single standardised full thickness wound (7.5 mm×7.5 mm) was created in the flank skin of each experimental animal. Wounds were dressed with a 1.5×1.5 cm pad of encapsulated gauze moistened with a fixed volume of sterile saline.
Wounds were allowed to heal without intervention for a period of 4 days, other than the replacement of saline moistened gauze and film dressings, as required.
On day 4 standard secondary dressings were removed. 100 mg of 100 μM or 500 μM 3,7-bis(N,N-dibutylamino)phenothiazin-5-ium bromide cream was applied to the wound. The wounds were not illuminated. The area of the wounds were measured prior to treatment (day 4) and on day 6, 8 and 10.

chronic leg ulcers = experiment: Phase IIa randomised, placebo controlled trial, PDT in chronic leg ulcers; format: in vivo, patients; conditions: 500 μM cream, 50 J/cm^2
Description: 16 patients with chronic leg ulcers were recruited for the study. All patients had ulcers that had been present for at least 3 months prior to treatment. After randomisation, 8 patients were treated with 3,7-bis(N,N-dibutylamino)phenothiazin-5-ium bromide PDT and 8 patients were treated with placebo. Ulcer area was measured before treatment and at 1 week, 1 month, 2 months and 3 months post treatment using a Visitrak system. Photographs were taken of the ulcers before treatment and at 24 h, 1 week, 1, 2 and 3 months post treatment.
Placebo cream was Unguentum Merck: water (1:2). 3,7-bis(N,N-dibutylamino)phenothiazin-5-ium bromide cream was 500 μM 3,7-bis(N,N-dibutylamino)phenothiazin-5-ium bromide in Unguentum Merck:water (1:2). For the treatment a 1 mm depth of cream was spread over the surface of the ulcer. The ulcer was then left, occluded under film, shielded from light for 15 minutes. At the end of the 15 minute incubation, excess cream was removed and the ulcer was illuminated using a CureLight 01 (obtainable from Photocure) at a light dose of 50 J/cm^2.

[2] = tested on: chronic non healing leg ulcers or diabetic foot ulcers; experiment: Clinical study, PDT on wound healing of chronic ulcers; format: in vivo, patients; conditions: 500 μM cream topical
From the text: After ethical review board approval and written informed participant consents were obtained, patients were recruited, provided they satisfied the ethically approved inclusion criteria. MHRA approval had been obtained.
Patients were recruited who had chronic non healing leg ulcers or diabetic foot ulcers. These patients had shown little or no wound healing for a number of weeks prior to treatment.
For the treatment 3,7-bis(N,N-dibutylamino)phenothiazin-5-ium bromide, formulated in ethanol and Unguentum M as described in Example 2 above at 500 μM, was applied topically to the ulcer surface and surrounding ulcer margin (5 mm) giving a cream depth of up to 5 mm. The ulcer was then left, not occluded, but in minimal lighting, for 15 minutes. After this pre-incubation time, the cream was rubbed into the ulcer so underlying skin/tissue could be seen through the cream. If this was not possible excess cream was removed. The ulcer was then illuminated using a broad band CureLight lamp (obtainable from PhotoCure) at a fluence rate of 20-50 mW/cm^2 giving a total light dose of 50 J/cm^2.
The ulcer area was measured pre treatment and after 1 week and one month.

[3] = tested on: full thickness wound in flank skin of diabetic (db/db) mice; experiment: Wound healing in spontaneous diabetic (db/db) mice, PDT; format: in vivo, mice (c57BLKs/Bom db/db)
From the text: When wounds are created on (db/db) diabetic mice the wounds heal more slowly compared to the non diabetic mice. This delayed healing may be caused by a lack of vasculature to feed the wound. The delayed healing model is representative of a chronic wound, and wound healing effects of drugs can be more closely monitored and more easily measured.
18 animals were included in this study. 6 control non diabetic mice (db/+), 6 control diabetic (db/db) mice and 6 (db/db) PDT treated diabetic mice.
The 3,7-bis(N,N-dibutylamino)phenothiazin-5-ium bromide was formulated in ethanol and Unguentum M as described in Example 2 below at a concentration of 0.266 mg/mL.
On day 0, the animals were anaesthetised and a single standardised full thickness wound (7.5 mm×7.5 mm) was created in the flank skin of each experimental animal. Wounds were then dressed with a 1.5×1.5 cm pad of encapsulated gauze moistened with a fixed volume of sterile saline solution. […]
Image Pro image analysis software (version 4.1.0.0, obtained from Media Cybernetics, USA) was used to calculate wound closure from wound images in each of the experimental groups over time. For each wound at each time point—open wound area was measured and expressed in terms of % wound area relative to day 4 (treatment day).

[4] = tested on: full-thickness excisional wounds in flank skin of Wistar rats; experiment: Closure of full thickness excisional wounds in Wistar rat, PDT; format: in vivo
Description: 3,7-bis(N,N-dibutylamino)phenothiazin-5-ium bromide was solubilised in ethanol to give a concentration of 10 mg/ml. This was diluted in Unguentum M: 80% water, to give creams with final concentrations of 100 μM or 500 μM of 3,7-bis(N,N-dibutylamino)phenothiazin-5-ium bromide.
The above creams were used on the closure of full thickness excisional wounds in Wistar rats with exposure to light. The effect of topical application of 50 mg of 3,7-bis(N,N-dibutylamino)phenothiazin-5-ium bromide (at concentrations of 100 μM and 500 μM) followed by photo-activation with 688 nm laser light was investigated and compared to that of application of the drug delivery vehicle (Unguentum M) followed by 688 nm photo-activation. The light dose used was 50 J/cm^2. Wound repair was measured in terms of the closure of standardised full-thickness excisional wounds created in the flank skin of adult Wistar rats.

intimal hyperplasia = conditions: local photodynamic action; Heckenkamp et al 2000; cited from earlier work
wounds = conditions: literature conclusions (Parekh 1999, Lambrects 2005, Hamblin 2003, Belmont 1999); cited from earlier work
[5] = tested on: rat skin flap reconstruction; conditions: Kubler et al 1996; cited from earlier work
[6] = individual patients 1-5, 50 J/cm^2 broad band light

CCCCN(CCCC)c1ccc2nc3ccc(N(CCCC)CCCC)cc3[s+]c2c1.[Br-] [3,7-bis(N,N-dibutylamino)phenothiazin-5-ium bromide]
% Wound area remaining, no light, 2 days post treatment ([1]; 100 μM cream): 62%
% Wound area remaining, no light, 4 days post treatment ([1]; 100 μM cream): 33%
% Wound area remaining, no light, 6 days post treatment ([1]; 100 μM cream): 25%
% Wound area remaining, no light, 2 days post treatment ([1]; 500 μM cream): 62%
% Wound area remaining, no light, 4 days post treatment ([1]; 500 μM cream): 30%
% Wound area remaining, no light, 6 days post treatment ([1]; 500 μM cream): 19%
wound healing, 500 μM vs 100 μM ([1]; no light): heal faster at a 500 μM concentration than at 100 μM
healing as measured by the size of the wound, compared to placebo (chronic leg ulcers): Better healing
patients showing complete wound healing at 2 months (chronic leg ulcers; 2 out of 8 patients, placebo: none): 25%
patients showing complete wound healing at 3 months (chronic leg ulcers; 4 out of 8 patients, placebo: 1 out of 8 (12.5%)): 50%
area of the treated ulcers following the photodynamic treatment ([2]; 50 J/cm^2): reduction in the area of the treated ulcers
Percentage reduction in ulcer area at 1 month compared to pre treatment [2, 6]: 13% and 8% and 10% and 50% and 34%
Percentage reduction in ulcer area at 1 week compared to pre treatment [2, 6]: 8% and 14% and 0% and 23%
% wound area (open wound area relative to day 4, treatment day) ([3]; diabetic db/db mice, 500 μM in Unguentum M topical + 25 J/cm^2 688 nm light, 3 days post treatment, 6 animals): 46%
rate of wound healing ([3]; in combination with light, treated diabetic mice vs control diabetic mice): substantial increase in the rate of wound healing
wound closure, light treatment vs compound alone ([4]; 100 μM cream, 50 mg topical, 688 nm laser light 50 J/cm^2): closed more rapidly
wound closure, higher dose vs lower dose ([4]; 500 μM cream vs 100 μM cream): closed more rapidly
adverse tissue responses, gross examination of wound and wound margin tissue ([4]; any treatment regime of the study): no adverse tissue responses were noted

CN(C)c1ccc2nc3ccc(=[N+](C)C)cc-3sc2c1 [methylene blue]
effect on intimal hyperplasia (intimal hyperplasia): retarding effect on intimal hyperplasia

Photofrin
effect of PDT on wound healing (wounds): delay wound healing
effect on wound healing [5]: delayed wound healing

Poly-lysine-chlorin e6
effect of PDT on wound healing (wounds): did not accelerate wound healing
